Results from paper PMC7468670, “Biophysical Insight into the Interaction of Human Lysozyme with Anticancer Drug Anastrozole: A Multitechnique Approach” (The Scientific World Journal, 2020).

Target: T1, Human lysozyme (HL) (Homo sapiens, UniProt P61626)
T1 construct: gene LYZ; commercial human lysozyme (Sigma-Aldrich), dialysed; single polypeptide, no subunits; 1REX used for docking only
T1 sequence (P61626 19-148): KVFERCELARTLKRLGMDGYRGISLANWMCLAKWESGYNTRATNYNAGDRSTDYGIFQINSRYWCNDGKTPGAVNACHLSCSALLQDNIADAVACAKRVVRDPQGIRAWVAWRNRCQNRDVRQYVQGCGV
Assay: intrinsic fluorescence quenching, modified Stern-Volmer
Type: binding
Conditions: 20 mM sodium phosphate pH 7.4, 310 K, 5 uM HL, excitation 280 nm; n = 1.00; double-log
Excerpt: intrinsic fluorescence quenching, modified Stern-Volmer on Human lysozyme (HL)

Kb: 9660 M⁻¹
Compound: CC(C)(C#N)c1cc(Cn2cncn2)cc(C(C)(C)C#N)c1 [anastrozole]
